Assay: Storage stability of Dimethoate emulsifiable concentrates Ia, Ib, Ic (Example 1)
Type: physicochemical
Details: stored 14 days at 54° C.; Table 1
Procedure: Three emulsifiable concentrates (Ia, Ib and Ic) containing. Dimethoate were prepared by mixing the components listed below in the amounts stated. Said amounts are parts by weight.
The formulations Ia and Ib are not according to the invention but serve as comparison examples to formulation Ic (according to the invention).
The formulations were stored at different temperatures for various periods of time, whereupon the pro rata share of Dimethoate degradation was determined.

O=C1C=CC(=O)O1 [maleic anhydride]
Stabilization of Dimethoate relative to acetic anhydride: twice as effectively
